Experiment: Barrier transport resistance, simple experimental method (SEM), filtration through 0.2 micrometer filter
Type: physicochemical
Conditions: Examples 121-129; relative SDS concentration in SPC/Tween 80 bilayer; some uncertainty in the 2-6 mol % region
Text: In first approximation one relies on simple experimental method (SEM) and takes barrier transport resistance (in arbitrary units) to be proportional to the pressure (in arbitrary units) needed to drive a suspension of relatively large vesicles through a 0.2 micrometer filter with good efficacy. […] Barrier penetrability, which in older publications is called permeability, is identified with inverse barrier resistance value. […] Drug Delivery Rev. 18:349-378 (1996).
Transport (pore penetration) capability. […] The trend is enhanced by the presence of sodium dodecylsulphate in the mixed lipid aggregates. The later shifts the minimum amount of Tween needed to cross the semi-permeable barrier to increasingly lower relative concentration values.
Transport ability ([…] capability and adaptability) of aggregate suspension. To characterise the resistance of semi-permeable barrier to suspension flux (=transbarrier flux), the same method as in examples 1-120 was used. The resistance was measured as a function of relative SDS concentration in bilayer, to determine minimum amount of this latter surfactant that is needed to maximise suspension flux across the barrier and minimises the barrier transport resistance value. […] This is consistent with the results of first test series (examples 1-120) except in that the measured resistance values are now somewhat higher. […]

threshold limit: minimum amount of SDS needed to minimise barrier transport resistance: around 6 mol-%
Compound: CCCCCCCCCCCCOS(=O)(=O)[O-].[Na+] [SDS, Sodium dodecylsulphate]
